Experiments:
[1] = target: human alpha1 nicotinic acetylcholine (nACh) receptor (Homo sapiens, UniProt P02708); test: Nicotinic acetylcholine receptor antagonism assay, IONFlux automated patch clamp (Example 203); format: cell-based; conditions: for IC50: antagonism of ACh-stimulated human alpha1 nAChR current, patch clamp; for Emax at 100 µM: maximum percentage antagonism at maximum concentration tested 100 μM; for Emax at 10 µM: maximum percentage antagonism at maximum concentration tested 10 μM
human alpha1 nicotinic acetylcholine (nACh) receptor, sequence (P02708 21-457): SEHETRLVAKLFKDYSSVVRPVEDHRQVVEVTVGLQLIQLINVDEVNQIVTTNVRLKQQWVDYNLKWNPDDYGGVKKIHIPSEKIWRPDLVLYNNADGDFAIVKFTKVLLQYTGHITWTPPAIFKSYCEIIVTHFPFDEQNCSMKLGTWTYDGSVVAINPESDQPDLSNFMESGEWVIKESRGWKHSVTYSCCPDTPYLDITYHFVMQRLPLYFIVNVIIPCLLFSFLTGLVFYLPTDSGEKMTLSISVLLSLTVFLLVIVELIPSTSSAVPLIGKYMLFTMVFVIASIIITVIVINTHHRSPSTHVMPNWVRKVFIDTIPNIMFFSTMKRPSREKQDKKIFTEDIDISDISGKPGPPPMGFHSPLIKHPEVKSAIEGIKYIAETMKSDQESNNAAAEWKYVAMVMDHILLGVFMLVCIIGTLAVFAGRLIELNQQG
human alpha1 nicotinic acetylcholine (nACh) receptor, sequence (P11230 24-501 partner): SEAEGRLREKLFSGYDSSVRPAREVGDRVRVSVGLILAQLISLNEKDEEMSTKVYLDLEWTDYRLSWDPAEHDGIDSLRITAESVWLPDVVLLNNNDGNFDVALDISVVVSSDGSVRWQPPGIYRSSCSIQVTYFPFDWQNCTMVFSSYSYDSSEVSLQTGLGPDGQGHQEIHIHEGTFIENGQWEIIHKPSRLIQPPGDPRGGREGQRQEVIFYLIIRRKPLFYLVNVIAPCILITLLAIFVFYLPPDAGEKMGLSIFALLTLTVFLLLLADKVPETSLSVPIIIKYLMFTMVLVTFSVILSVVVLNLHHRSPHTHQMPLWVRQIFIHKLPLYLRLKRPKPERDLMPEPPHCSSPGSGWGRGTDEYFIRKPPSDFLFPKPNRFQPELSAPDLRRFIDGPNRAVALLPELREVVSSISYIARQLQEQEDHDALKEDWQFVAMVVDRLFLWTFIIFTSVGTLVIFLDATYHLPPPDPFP
human alpha1 nicotinic acetylcholine (nACh) receptor, sequence (Q07001 22-517 partner): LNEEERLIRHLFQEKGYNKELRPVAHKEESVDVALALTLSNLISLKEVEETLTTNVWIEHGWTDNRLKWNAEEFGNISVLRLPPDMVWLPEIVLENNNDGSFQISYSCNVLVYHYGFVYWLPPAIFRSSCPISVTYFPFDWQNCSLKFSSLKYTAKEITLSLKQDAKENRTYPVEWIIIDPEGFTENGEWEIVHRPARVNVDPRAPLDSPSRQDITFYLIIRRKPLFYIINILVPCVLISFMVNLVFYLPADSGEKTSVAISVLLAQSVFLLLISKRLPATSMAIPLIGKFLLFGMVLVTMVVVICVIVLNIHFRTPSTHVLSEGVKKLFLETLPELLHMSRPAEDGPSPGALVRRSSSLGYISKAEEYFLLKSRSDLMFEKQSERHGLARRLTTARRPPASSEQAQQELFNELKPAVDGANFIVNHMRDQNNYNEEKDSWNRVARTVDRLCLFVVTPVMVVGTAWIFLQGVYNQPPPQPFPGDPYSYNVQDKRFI
In short: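 Cells expressing human α1 nAChR were incubated with a compound dose response (top 10 μM or 100 μM), then stimulated with ACh (10 mM), and peak current was read by automated patch clamp. % inhibition was taken against ACh-alone control, corrected for vehicle and run-down, and fit non-linearly for IC50; runs were averaged.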

[2] = test system: CCR2 expressing cells (CD11b+Ly6c+Hi) in peripheral blood; test: In vivo depletion assay, flow cytometry of peripheral blood (Example 201); parameters: species or system human CCR2 knock-in mice (C57 background); conditions: hCCR2 knock-in mice, IV 0.1 mpk compound + 10 mpk anti-cotinine antibody (SEQ ID NO: 13/14), peripheral blood at 48 hr
In short: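 Flow cytometry of blood collected at study termination quantified percent depletion of CD11b+Ly6c+Hi cells and CCR2 expression, using surface markers CD45, CD3, CD11b, Ly6C, human CCR2 after Fc block, with 7AAD viability stain. Compound given in saline:DMSO:PBS formulation, optionally combined with anti-cotinine antibody, incubated 30 min before administration.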

[3] = target: anti-cotinine antibody (SEQ ID NO: 11/12, rabbit variable region with human IgG1 Fc DE mutation); test: SPR binding of anti-cotinine antibody to ARM compounds, Biacore T200, 37° C. (Example 202); conditions: SPR Biacore T200, 37° C., pH 7.4, antibody SEQ ID NO: 11/12 captured on protein A; Kd in molar
In short: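 Run at 37 °C in 10 mM HEPES pH 7.4, 150 mM NaCl, 0.005% P20, 1% DMSO, with compounds titrated from 200 nM (five 3-fold steps) over protein A–captured antibody. A 1:1 kinetic model on double-referenced data gave rate constants, Kd as koff/kon and residence time 1/koff; results as pKd, run-averaged.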

Compound	IC50 [1] [µM]	Emax at 100 µM ([1]; read-out: Maximum Response) [%]	% Depletion of CCR2 expressing cells [2] [%]	pKd of Antibody for ARM Compound of Formula (I) [3]	Emax at 33.33 µM ([1]; maximum percentage antagonism at maximum concentration tested 33.33 μM, read-out: Maximum Response) [%]	Emax at 10 µM ([1]; read-out: Maximum Response) [%]
CC(C)N(C)[C@@H]1CC[C@H](N2CC[C@H](Nc3ncnc4ccc(C(F)(F)F)cc34)C2=O)[C@H](NC(=O)CCOCCNC(=O)CCCO[C@H]2CC[C@H](OCCNC(=O)[C@H]3CC(=O)N(C)[C@@H]3c3cccnc3)CC2)C1 [Example 7, (2S,3S)-N-(2-(((1r,4S)-4-(4-((2-(3-(((1R,2S,5R)-5-(Isopropyl(methyl)amino)-2-((S)-2-oxo-3-((6-(trifluoromethyl)quinazolin-4-yl)amino)pyrrolidin-1-yl)cyclohexyl)amino)-3-oxopropoxy)ethyl)amino)-4-oxobutoxy)cyclohexyl)oxy)ethyl)-1-methyl-5-oxo-2-(pyridin-3-yl)pyrrolidine-3-carboxamide]	13.7	95	47	9.2515		
CN1C(=O)C[C@H](C(=O)NCCO[C@H]2CC[C@H](OCCCC(=O)N[C@H]3CC[C@H](C(=O)N[C@@H]4C[C@H](NC(C)(C)C)CC[C@@H]4N4CC[C@H](Nc5ncnc6ccc(C(F)(F)F)cc56)C4=O)CC3)CC2)[C@H]1c1cccnc1 [Example 10, (2S,3S)-N-(2-(((1R,4S)-4-(4-(((1R,4R)-4-(((1R,2S,5R)-5-(tert-Butylamino)-2-((S)-2-oxo-3-((6-(trifluoromethyl)quinazolin-4-yl)amino)pyrrolidin-1-yl)cyclohexyl)carbamoyl)cyclohexyl)amino)-4-oxobutoxy)cyclohexyl)oxy)ethyl)-1-methyl-5-oxo-2-(pyridin-3-yl)pyrrolidine-3-carboxamide]	≥ 33.3		94.9	9.199	48	
CC(C)N(C)[C@@H]1CC[C@H](N2CC[C@H](Nc3ncnc4ccc(C(F)(F)F)cc34)C2=O)[C@H](NC(=O)CCCN2CCC3(CCN(CCCNC(=O)[C@H]4CC(=O)N(C)[C@@H]4c4cccnc4)CC3)CC2)C1 [Example 191, (2S,3S)-N-(3-(9-(4-(((1R,2S,5R)-5-(Isopropyl(methyl)amino)-2-((S)-2-oxo-3-((6-(trifluoromethyl)quinazolin-4-yl)amino)pyrrolidin-1-yl)cyclohexyl)amino)-4-oxobutyl)-3,9-diazaspiro[5.5]undecan-3-yl)propyl)-1-methyl-5-oxo-2-(pyridin-3-yl)pyrrolidine-3-carboxamide]	2.95		69	9.68		74
CC(C)N(C)[C@@H]1CC[C@H](N2CC[C@H](Nc3ncnc4ccc(C(F)(F)F)cc34)C2=O)[C@H](NC(=O)CNC(=O)[C@H]2CC[C@@H](NC(=O)CCOCCOCCNC(=O)[C@H]3CC(=O)N(C)[C@@H]3c3cccnc3)CC2)C1 [Example 137, (2S,3S)-N-(2-(2-(3-(((1S,4s)-4-((2-(((1R,2S,5R)-5-(Isopropyl(methyl)amino)-2-((S)-2-oxo-3-((6-(trifluoromethyl)quinazolin-4-yl)amino)pyrrolidin-1-yl)cyclohexyl)amino)-2-oxoethyl)carbamoyl)cyclohexyl)amino)-3-oxopropoxy)ethoxy)ethyl)-1-methyl-5-oxo-2-(pyridin-3-yl)pyrrolidine-3-carboxamide]	70	62	89	9.336		
CN1C(=O)C[C@H](C(=O)NCCOCCOCCOCCOCCOCCC(=O)N[C@@H]2C[C@H](NC(C)(C)C)CC[C@@H]2N2CC[C@H](Nc3ncnc4ccc(C(F)(F)F)cc34)C2=O)[C@H]1c1cccnc1 [Example 37, (2S,3S)-N-(18-(((1R,2S,5R)-5-(tert-Butylamino)-2-((S)-2-oxo-3-((6-(trifluoromethyl)quinazolin-4-yl)amino)pyrrolidin-1-yl)cyclohexyl)amino)-18-oxo-3,6,9,12,15-pentaoxaoctadecyl)-1-methyl-5-oxo-2-(pyridin-3-yl)pyrrolidine-3-carboxamide]	≥ 10		75	9.7475		7.3
CC(C)N(C)[C@@H]1CC[C@H](N2CC[C@H](Nc3ncnc4ccc(C(F)(F)F)cc34)C2=O)[C@H](NC(=O)CCOCCOCCNC(=O)CCOCCOCCNC(=O)[C@H]2CC(=O)N(C)[C@@H]2c2cccnc2)C1 [Example 76, (2S,3S)-N-(19-(((1R,2S,5R)-5-(Isopropyl(methyl)amino)-2-((S)-2-oxo-3-((6-(trifluoromethyl)quinazolin-4-yl)amino)pyrrolidin-1-yl)cyclohexyl)amino)-9,19-dioxo-3,6,13,16-tetraoxa-10-azanonadecyl)-1-methyl-5-oxo-2-(pyridin-3-yl)pyrrolidine-3-carboxamide]	32.4	67.7	65	9.1155		
CC(C)N(C)[C@@H]1CC[C@H](N2CC[C@H](Nc3ncnc4ccc(C(F)(F)F)cc34)C2=O)[C@H](NC(=O)[C@H]2CC[C@@H](NC(=O)CCCC(=O)NCCCOCCCNC(=O)[C@H]3CC(=O)N(C)[C@@H]3c3cccnc3)CC2)C1 [Example 18, N^1-((1S,4s)-4-(((1R,2S,5R)-5-(Isopropyl(methyl)amino)-2-((S)-2-oxo-3-((6-(trifluoromethyl)quinazolin-4-yl)amino)pyrrolidin-1-yl)cyclohexyl)carbamoyl)cyclohexyl)-N^5-(3-(3-((2S,3S)-1-methyl-5-oxo-2-(pyridin-3-yl)pyrrolidine-3-carboxamido)propoxy)propyl)glutaramide]	≥ 100	44.9	88	9.0895		
CC(C)N(C)[C@@H]1CC[C@H](N2CC[C@H](Nc3ncnc4ccc(C(F)(F)F)cc34)C2=O)[C@H](NC(=O)CCOCCC(=O)N[C@H]2C[C@@H](C(=O)NCCOCCNC(=O)[C@H]3CC(=O)N(C)[C@@H]3c3cccnc3)C2)C1 [Example 186, (2S,3S)-N-(2-(2-((1S,3R)-3-(3-(3-(((1R,2S,5R)-5-(Isopropyl(methyl)amino)-2-((S)-2-oxo-3-((6-(trifluoromethyl)quinazolin-4-yl)amino)pyrrolidin-1-yl)cyclohexyl)amino)-3-oxopropoxy)propanamido)cyclobutane-1-carboxamido)ethoxy)ethyl)-1-methyl-5-oxo-2-(pyridin-3-yl)pyrrolidine-3-carboxamide]	31.8	55.2	96	9.1435		
CN1C(=O)C[C@H](C(=O)NCCOCCNC(=O)[C@H]2C[C@H](NC(=O)CCOCCC(=O)N[C@@H]3C[C@H](NC(C)(C)C)CC[C@@H]3N3CC[C@H](Nc4ncnc5ccc(C(F)(F)F)cc45)C3=O)C2)[C@H]1c1cccnc1 [Example 188, (2S,3S)-N-(2-(2-((1R,3S)-3-(3-(3-(((1R,2S,5R)-5-(tert-butylamino)-2-((S)-2-oxo-3-((6-(trifluoromethyl)quinazolin-4-yl)amino)pyrrolidin-1-yl)cyclohexyl)amino)-3-oxopropoxy)propanamido)cyclobutane-1-carboxamido)ethoxy)ethyl)-1-methyl-5-oxo-2-(pyridin-3-yl)pyrrolidine-3-carboxamide]	85.9	53.5	91	8.975		
